Laboratory results reported in US9862708B2, “Pyrazolone compounds and uses thereof” (Tempest Therapeutics, Inc., priority 2014, dated 2018).

Target: T1, human PPARα (Homo sapiens, UniProt Q07869)
T1 construct: host or cells: proprietary non-human mammalian cells
T1 sequence (Q07869 1-468): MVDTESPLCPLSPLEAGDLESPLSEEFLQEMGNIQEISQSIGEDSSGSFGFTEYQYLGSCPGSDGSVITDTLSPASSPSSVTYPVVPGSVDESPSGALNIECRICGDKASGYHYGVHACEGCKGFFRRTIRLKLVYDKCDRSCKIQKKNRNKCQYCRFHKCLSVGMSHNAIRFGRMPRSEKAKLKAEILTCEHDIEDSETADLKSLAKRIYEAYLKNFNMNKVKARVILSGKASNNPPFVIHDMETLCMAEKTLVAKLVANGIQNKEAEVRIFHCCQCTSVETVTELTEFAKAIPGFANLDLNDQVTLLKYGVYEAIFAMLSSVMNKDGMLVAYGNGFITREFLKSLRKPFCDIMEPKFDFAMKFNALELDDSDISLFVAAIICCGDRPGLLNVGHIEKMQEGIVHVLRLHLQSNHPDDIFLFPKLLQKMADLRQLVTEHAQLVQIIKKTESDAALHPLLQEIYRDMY
Experiment: Human PPARα Reporter Assay (luciferase, Indigo Biosciences)
Assay type: cell-based
Details: antagonism; luciferase reporter cells, overnight incubation; read-out: PPARα IC50
Procedure: Human PPARα Reporter Assay
The screening of test compounds for agonist or antagonist activities against human PPARα receptors was performed using a commercial kit, Human PPARα Reporter Assay System (Indigo Biosciences, Cat. #IB00111).
This nuclear receptor assay system utilizes proprietary non-human mammalian cells engineered to provide constitutive, high-level expression of Human PPARα. Because these cells incorporate a PPARα-responsive luciferase reporter gene, quantifying expressed luciferase activity provides a sensitive surrogate measure of PPARα activity in the treated cells. The primary application of this reporter assay system is in the screening of test samples to quantify any functional activity, either agonist or antagonist, that they may exert against human PPARα.
Briefly, reporter cells are dispensed into wells of the assay plate and then immediately dosed with test compounds. Following an overnight incubation, the treatment media is discarded and Luciferase Detection Reagent (LDR) is added. The intensity of light emission from the ensuing luciferase reaction provides a sensitive measure that is directly proportional to the relative level of PPARα activation in the reporter cells.

Compound	IC50
CCOc1ccc(-c2ccc(CCCC3=NN(Cc4ccc(C(C)(C)C)cc4)C(=O)C3(C)C)cc2)cc1CC(=O)O [Example 55, 2-(4′-(3-(1-(4-(tert-butyl)benzyl)-4,4-dimethyl-5-oxo-4,5-dihydro-1H-pyrazol-3-yl)propyl)-4-ethoxy-[1,1′-biphenyl]-3-yl)acetic acid]	110 nM
CC(C)(Oc1ccc(CCCC2=NN(c3ccc(C(F)(F)F)cc3)C(=O)C23CCCC3)cc1)C(=O)NC1CC1 [Example 26, N-cyclopropyl-2-methyl-2-(4-(3-(4-oxo-3-(4-(trifluoromethyl)phenyl)-2,3-diazaspiro[4,4]non-1-en-1-yl)propyl)phenoxy)propanamide]	110 nM
COc1ccc(-c2ccc(CCCC3=NN(Cc4ccc(C(C)(C)C)cc4)C(=O)C3(C)C)cc2)nc1NS(=O)(=O)c1ccccc1 [Example 59, N-(6-(4-(3-(1-(4-(tert-butyl)benzyl)-4,4-dimethyl-5-oxo-4,5-dihydro-1H-pyrazol-3-yl)propyl)phenyl)-3-methoxypyridin-2-yl)benzenesulfonamide]	10 nM
CC(C)(Oc1ccc(CCCC2=NN(c3cccc(-c4ccccc4)c3)C(=O)C23CCCC3)cc1)C(=O)O [Example 38, 2-(4-(3-(3-([1,1′-biphenyl]-3-yl)-4-oxo-2,3-diazaspiro[4,4]non-1-en-1-yl)propyl)phenoxy)-2-methylpropanoic acid]	25 nM
CC(C)(Oc1ccc(CCCC2=NN(c3ccc(OC(F)(F)F)cc3)C(=O)C23CCCC3)cc1)C(=O)NC1CC1 [Example 29, N-cyclopropyl-2-methyl-2-(4-(3-(4-oxo-3-(4-(trifluoromethoxy)phenyl)-2,3-diazaspiro[4,4]non-1-en-1-yl)propyl)phenoxy)propanamide]	69 nM
CC(C)(Oc1ccc(CCCC2=NN(c3cccc(C(F)(F)F)c3)C(=O)C2(C)C)cc1)C(=O)O [Example 20, 2-(4-(3-(4,4-dimethyl-5-oxo-1-(3-(trifluoromethyl)phenyl)-4,5-dihydro-1H-pyrazol-3-yl)propyl)phenoxy)-2-methylpropanoic acid]	19 nM
CC(C)(Oc1ccc(CCCC2=NN(c3cccc(OC(F)(F)F)c3)C(=O)C23CCCC3)cc1)C(=O)O [Example 36, 2-methyl-2-(4-(3-(4-oxo-3-(3-(trifluoromethoxy)phenyl)-2,3-diazaspiro[4,4]non-1-en-1-yl)propyl)phenoxy)propanoic acid]	27 nM
CC1(C)C(=O)N(c2cccc(C(F)(F)F)c2)N=C1CCCc1ccc(OC(C)(C(=O)O)c2ccccc2)cc1 (single isomer, unassigned) [54-enantiomer#1, 2-(4-(3-(4,4-dimethyl-5-oxo-1-(3-(trifluoromethyl)phenyl)-4,5-dihydro-1H-pyrazol-3-yl)propyl)phenoxy)-2-phenylpropanoic acid]	640 nM
CC(C)(Oc1ccc(CCCC2=NN(c3ccc(C(F)(F)F)cc3)C(=O)C23CCCC3)cc1)C(=O)O [Example 24, 2-methyl-2-(4-(3-(4-oxo-3-(4-(trifluoromethyl)phenyl)-2,3-diazaspiro[4,4]non-1-en-1-yl)propyl)phenoxy)propanoic acid]	1.4 nM
Cc1ccc(N2N=C(CCCc3ccc(OC(C)(C)C(=O)O)cc3)C3(CCCC3)C2=O)cc1C(F)(F)F [Example 39, 2-methyl-2-(4-(3-(3-(4-methyl-3-(trifluoromethyl)phenyl)-4-oxo-2,3-diazaspiro[4,4]non-1-en-1-yl)propyl)phenoxy)propanoic acid]	3.1 nM
CC(C)(Oc1ccc(CCCC2=NN(c3ccc(C(F)(F)F)cn3)C(=O)C2(C)C)cc1)C(=O)O [Example 21, 2-(4-(3-(4,4-dimethyl-5-oxo-1-(5-(trifluoromethyl)pyridin-2-yl)-4,5-dihydro-1H-pyrazol-3-yl)propyl)phenoxy)-2-methylpropanoic acid]	35 nM
Cc1ccc(N2N=C(CCCc3ccc(OC(C)(C)C(=O)O)cc3)C3(CCCC3)C2=O)cc1C [Example 31, 2-(4-(3-(3-(3,4-dimethylphenyl)-4-oxo-2,3-diazaspiro[4,4]non-1-en-1-yl)propyl)phenoxy)-2-methylpropanoic acid]	2.6 nM
CC(C)(CNS(=O)(=O)c1ccccc1)Oc1ccc(CCCC2=NN(c3ccc(C(F)(F)F)cc3)C(=O)C23CCCC3)cc1 [Example 46, N-(2-methyl-2-(4-(3-(4-oxo-3-(4-(trifluoromethyl)phenyl)-2,3-diazaspiro[4,4]non-1-en-1-yl)propyl)phenoxy)propyl)benzenesulfonamide]	1300 nM
CC(C)(Oc1ccc(CCCC2=NN(c3ccc(C(F)(F)F)cc3)C(=O)C23CCCC3)cc1)C(=O)NCC(F)(F)F [Example 27, 2-methyl-2-(4-(3-(4-oxo-3-(4-(trifluoromethyl)phenyl)-2,3-diazaspiro[4,4]non-1-en-1-yl)propyl)phenoxy)-N-(2,2,2-trifluoroethyl)propanamide]	410 nM
